We go through 17 molecules from patent publication US12534474B2, “Dihydrofuropyridine derivatives as rho-kinase inhibitors” (CHIESI FARMACEUTICI S.P.A., priority 2020, dated 2026).

Common to all, as to format: biochemical
The target in one assay is PKA (Homo sapiens, UniProt P17612). Nature of the assay: In vitro inhibitory activity assay for PKA, ADP-Glo, reported as selectivity ratio vs ROCK2. The following applies: Ki for PKA divided by Ki of ROCK2 (Method B). On the procedure:
In Vitro Inhibitory Activity Assay Description for PKA
The effectiveness of compounds of the present invention to inhibit PKA activity can be determined in a 10 μL assay containing 40 mM Tris pH7.5, 20 mM MgCl2 0.1 mg/mL BSA, 50 μM DTT and 260 μM peptide substrate (kemptide) using an ADP-Glo kit (Promega). Compounds were dissolved in DMSO such that the final concentration of DMSO was 1% in the assay. All reactions/incubations are performed at 25° C. Compound and PKA enzyme (6 μL) were mixed and incubated for 30 min. Reactions were initiated by addition of ATP (4 μL) such that the final concentration of ATP in the assay was 10 μM. After a 30 minute incubation 10 μL of ADP-Glo Reagent was added and after a further 1 hour incubation 20 μL of Kinase Detection Buffer was added and the mixture incubated for a further 45 minutes. The luminescent signal was measured on a luminometer. […] Compounds were tested in dose-response format and the inhibition of kinase activity was calculated at each concentration of compound. To determine the IC50 (concentration of compound required to inhibit 50% of the enzyme activity) data were fit to a plot of % inhibition vs Log10 compound concentration using a sigmoidal fit with a variable slope and fixing the maximum to 100% and the minimum to 0%. To determine the Ki values the Cheng-Prusoff equation was utilized (Ki=IC50/(1+[S]/Km).
In vitro inhibitory activities for PKA were reported as selectivity ratio vs. ROCK2. Selectivity ratio PKA/ROCK2 was calculated by dividing the Ki value for PKA by Ki value of ROCK2 (Method B) and reported into table 1.

Assay [1] deals with T1, ROCK1 (Homo sapiens, UniProt Q13464). The assay is described as follows: In vitro Rho kinase inhibitory activity assay, ADP-Glo, Method B (ATP 200 μM). Particulars: read-out: Method B ROCK 1 (Ki). On the procedure: (§1) In Vitro Inhibitory Activity Assay Description (Method B)
T1 sequence (Q13464 whole entry): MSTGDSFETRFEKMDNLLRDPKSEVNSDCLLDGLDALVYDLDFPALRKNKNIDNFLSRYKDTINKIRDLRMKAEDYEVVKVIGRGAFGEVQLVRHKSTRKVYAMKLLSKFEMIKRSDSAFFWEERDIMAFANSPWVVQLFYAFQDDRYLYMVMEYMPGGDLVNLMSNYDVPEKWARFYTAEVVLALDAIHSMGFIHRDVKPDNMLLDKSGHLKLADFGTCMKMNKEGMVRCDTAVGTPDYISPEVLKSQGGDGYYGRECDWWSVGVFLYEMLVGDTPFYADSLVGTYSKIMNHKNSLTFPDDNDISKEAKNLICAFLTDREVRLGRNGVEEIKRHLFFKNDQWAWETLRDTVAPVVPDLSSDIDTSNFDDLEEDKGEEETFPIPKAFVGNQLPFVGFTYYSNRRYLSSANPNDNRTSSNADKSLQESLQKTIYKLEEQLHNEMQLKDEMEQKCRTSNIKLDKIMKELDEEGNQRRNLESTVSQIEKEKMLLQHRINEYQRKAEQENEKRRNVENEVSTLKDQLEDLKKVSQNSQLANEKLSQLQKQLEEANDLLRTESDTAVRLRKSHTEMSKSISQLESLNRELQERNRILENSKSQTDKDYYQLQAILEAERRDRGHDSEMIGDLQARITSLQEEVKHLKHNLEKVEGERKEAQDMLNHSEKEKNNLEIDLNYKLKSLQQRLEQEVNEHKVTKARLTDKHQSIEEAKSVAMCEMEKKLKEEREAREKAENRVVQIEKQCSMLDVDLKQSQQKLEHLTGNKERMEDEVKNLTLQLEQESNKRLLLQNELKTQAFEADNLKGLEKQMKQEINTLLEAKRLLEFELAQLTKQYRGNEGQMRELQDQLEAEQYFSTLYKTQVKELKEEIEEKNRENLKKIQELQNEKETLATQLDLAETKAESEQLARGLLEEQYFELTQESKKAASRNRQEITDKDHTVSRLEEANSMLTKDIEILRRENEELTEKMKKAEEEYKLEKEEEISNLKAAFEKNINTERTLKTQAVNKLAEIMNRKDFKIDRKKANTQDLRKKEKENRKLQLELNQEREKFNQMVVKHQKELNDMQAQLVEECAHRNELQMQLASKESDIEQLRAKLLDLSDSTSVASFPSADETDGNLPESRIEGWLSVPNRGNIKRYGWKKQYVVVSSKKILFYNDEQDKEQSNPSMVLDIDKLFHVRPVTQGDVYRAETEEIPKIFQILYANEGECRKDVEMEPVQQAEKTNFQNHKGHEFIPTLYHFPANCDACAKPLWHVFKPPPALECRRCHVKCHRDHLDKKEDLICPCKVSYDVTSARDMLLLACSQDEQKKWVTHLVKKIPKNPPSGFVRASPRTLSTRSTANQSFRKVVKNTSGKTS
(§2) The effectiveness of compounds of the present invention to inhibit Rho kinase activity can be determined in a 10 μL assay containing 40 mM Tris pH7.5, 20 mM MgCl2 0.1 mg/mL BSA, 50 μM DTT and 2.5 μM peptide substrate (Myelin Basic Protein) using an ADP-Glo kit (Promega). Compounds were dissolved in DMSO such that the final concentration of DMSO was 1% in the assay. All reactions/incubations are performed at 25° C. Compound (2 ul) and either Rho kinase 1 or 2 (4 μL) were mixed and incubated for 30 min. Reactions were initiated by addition of ATP (4 μL) such that the final concentration of ATP in the assay was 200 μM. After a 1 hour incubation 10 μL of ADP-Glo Reagent was added and after a further 45 minute incubation 20 ul of Kinase Detection Buffer was added and the mixture incubated for a further 30 minutes. The luminescent signal was measured on a luminometer. […] Compounds were tested in dose-response format and the inhibition of kinase activity was calculated at each concentration of compound. To determine the IC50 (concentration of compound required to inhibit 50% of the enzyme activity) data were fit to a plot of % inhibition vs Log 10 compound concentration using a sigmoidal fit with a variable slope and fixing the maximum to 100% and the minimum to 0%. To determine the Ki values the Cheng-Prusoff equation was utilized (Ki=IC50/(1+[S]/Km).

For assay [2], the target named is T2, ROCK2 (Homo sapiens, UniProt O75116). Described as above. Particulars: read-out: Method B ROCK 2 (Ki). The method, then:
as §1, §2

The target in assay [3] is T1, ROCK1. The assay is described as follows: In vitro Rho kinase inhibitory activity assay, ADP-Glo, Method A (ATP 10 μM). Particulars: read-out: Method A ROCK 1 (Ki). On the procedure:
(§3) In Vitro Inhibitory Activity Assay Description (Method A)
as §2, with “(2 μL)” for “(2 ul)”, “was 10” for “was 200”, “20 μL” for “20 ul”, “vs Log10” for “vs Log 10”

Assay [4] addresses T2, ROCK2. The assay is described as above. The following applies: read-out: Method A ROCK 2 (Ki). On the procedure:
as §3
as §2, with “(2 μL)” for “(2 ul)”, “was 10” for “was 200”, “20 μL” for “20 ul”, “vs Log10” for “vs Log 10”

Broadly, the Ki is a measure of affinity in units of concentration, obtained from inhibition or displacement.

T2 sequence (O75116 whole entry): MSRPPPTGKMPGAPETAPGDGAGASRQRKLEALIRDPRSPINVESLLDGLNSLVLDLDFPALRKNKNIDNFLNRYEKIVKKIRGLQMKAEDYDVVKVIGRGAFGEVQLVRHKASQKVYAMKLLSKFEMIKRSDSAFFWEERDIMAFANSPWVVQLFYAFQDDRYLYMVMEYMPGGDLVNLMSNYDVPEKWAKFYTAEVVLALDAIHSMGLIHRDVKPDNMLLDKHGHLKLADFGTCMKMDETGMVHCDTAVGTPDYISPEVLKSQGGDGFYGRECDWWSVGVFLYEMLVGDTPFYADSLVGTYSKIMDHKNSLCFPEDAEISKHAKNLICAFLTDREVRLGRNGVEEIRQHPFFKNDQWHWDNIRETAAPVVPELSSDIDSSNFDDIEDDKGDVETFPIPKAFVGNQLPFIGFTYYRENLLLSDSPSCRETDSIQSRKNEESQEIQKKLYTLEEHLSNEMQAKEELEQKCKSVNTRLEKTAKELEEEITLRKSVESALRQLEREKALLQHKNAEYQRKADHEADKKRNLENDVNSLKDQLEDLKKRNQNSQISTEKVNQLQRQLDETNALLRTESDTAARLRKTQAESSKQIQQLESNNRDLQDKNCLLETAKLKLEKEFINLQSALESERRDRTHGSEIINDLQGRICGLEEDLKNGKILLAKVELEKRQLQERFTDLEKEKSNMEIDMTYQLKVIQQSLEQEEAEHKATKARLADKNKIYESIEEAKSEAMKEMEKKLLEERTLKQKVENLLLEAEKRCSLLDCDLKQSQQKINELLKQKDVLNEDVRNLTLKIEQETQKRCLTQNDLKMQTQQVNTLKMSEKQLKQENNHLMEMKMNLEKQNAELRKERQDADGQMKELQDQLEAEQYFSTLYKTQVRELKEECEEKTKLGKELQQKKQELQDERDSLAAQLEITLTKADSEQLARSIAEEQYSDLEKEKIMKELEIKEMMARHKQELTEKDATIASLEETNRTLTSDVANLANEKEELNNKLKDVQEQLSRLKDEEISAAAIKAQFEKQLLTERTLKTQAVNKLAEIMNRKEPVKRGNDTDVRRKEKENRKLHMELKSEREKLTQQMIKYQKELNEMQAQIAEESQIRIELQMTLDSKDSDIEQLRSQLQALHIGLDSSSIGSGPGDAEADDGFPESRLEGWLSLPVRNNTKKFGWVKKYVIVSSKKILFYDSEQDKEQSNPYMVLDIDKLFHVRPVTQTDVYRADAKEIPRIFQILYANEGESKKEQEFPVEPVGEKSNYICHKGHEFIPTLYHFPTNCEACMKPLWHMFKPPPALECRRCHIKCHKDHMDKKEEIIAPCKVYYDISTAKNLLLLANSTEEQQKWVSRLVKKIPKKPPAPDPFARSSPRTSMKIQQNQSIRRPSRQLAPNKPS

Regarding `O=C(NCCN1CCCCC1)c1cccc(CNc2ncc(-c3ccncc3)c3c2CCO3)c1` [Example 30, N-(2-(piperidin-1-yl)ethyl)-3-(((7-(pyridin-4-yl)-2,3-dihydrofuro[3,2-c]pyridin-4-yl)amino)methyl)benzamide], the “Ratio (PKA/ROCK2)” value on PKA is “*** (ratio≥10)”. For the same molecule, the inhibitory constant (Ki) on ROCK1 [1] was 3 to 30 nM; on ROCK2 [2], 3 to 30 nM; on ROCK1 [3] it was ≤ 3 nM; at ROCK2 [4] it was ≤ 3 nM.
Take `O=C(Nc1ncc(CN2CCCC2)s1)c1cccc(CNc2ncc(-c3ccncc3)c3c2CCO3)c1` [Example 1, 3-(((7-(Pyridin-4-yl)-2,3-dihydrofuro[3,2-c]pyridin-4-yl)amino)methyl)-N-(5-(pyrrolidin-1-ylmethyl)thiazol-2-yl)benzamide]: the Ki at ROCK1 [1], at ROCK2 [2], on ROCK1 [3] and at ROCK2 [4] was ≤ 3 nM each time.
As for `CC(=O)Nc1cccc(CNc2ncc(-c3ccncc3)c3c2CC(C)O3)c1` (centres unmarked) [Example 55, N-(3-(((2-methyl-7-(pyridin-4-yl)-2,3-dihydrofuro[3,2-c]pyridin-4-yl)amino)methyl)phenyl)acetamide], the Ki at ROCK1 [3] and at ROCK2 [4] was 3 to 30 nM throughout.
For the molecule `O=C(Nc1cccc(CNc2ncc(-c3ccncc3)c3c2CCO3)c1)c1ccc2c(c1)CCNC2` [Example 40, N-(3-(((7-(pyridin-4-yl)-2,3-dihydrofuro[3,2-c]pyridin-4-yl)amino)methyl)phenyl)-1,2,3,4-tetrahydroisoquinoline-6-carboxamide], the Ki at ROCK1 [3] and at ROCK2 [4] was ≤ 3 nM throughout.
In the case of `CN1CCc2nc(NC(=O)c3cccc(CNc4ncc(-c5ccncc5)c5c4CCO5)c3)sc2C1` [Example 23, N-(5-methyl-4,5,6,7-tetrahydrothiazolo[5,4-c]pyridin-2-yl)-3-(((7-(pyridin-4-yl)-2,3-dihydrofuro[3,2-c]pyridin-4-yl)amino)methyl)benzamide], the Ki at ROCK1 [3] and on ROCK2 [4] was ≤ 3 nM throughout.
Take `Cc1cnccc1-c1cnc(NCc2cccc(C(=O)Nc3nc4c(s3)CN(C)CC4)c2)c2c1OCC2` [Example 48, N-(5-methyl-4,5,6,7-tetrahydrothiazolo[5,4-c]pyridin-2-yl)-3-(((7-(3-methylpyridin-4-yl)-2,3-dihydrofuro[3,2-c]pyridin-4-yl)amino)methyl)benzamide]: the Ki at ROCK1 [3] and on ROCK2 [4] was ≤ 3 nM in each case.
With `Cc1cc(-c2cnc(NCc3cccc(C(=O)Nc4nc5c(s4)CN(C)CC5)c3)c3c2OCC3)ccn1` [Example 47, N-(5-Methyl-4,5,6,7-tetrahydrothiazolo[5,4-c]pyridin-2-yl)-3-(((7-(2-methylpyridin-4-yl)-2,3-dihydrofuro[3,2-c]pyridin-4-yl)amino)methyl)benzamide], the Ki on ROCK1 [3] and on ROCK2 [4] was 3 to 30 nM in each case.
On to `CN1CCc2nc(NC(=O)c3cccc(CNc4ncc(-c5ccncc5)c5c4CCO5)n3)sc2C1` [Example 52, N-(5-methyl-4,5,6,7-tetrahydrothiazolo[5,4-c]pyridin-2-yl)-6-(((7-(pyridin-4-yl)-2,3-dihydrofuro[3,2-c]pyridin-4-yl)amino)methyl)picolinamide], for which the Ki on ROCK1 [3] is 3 to 30 nM; on ROCK2 [4] it was ≤ 3 nM.
In the case of `O=C(Nc1cccc(CNc2ncc(-c3ccncc3)c3c2CCO3)c1)c1nc2c(s1)CN(C1COC1)CC2` [Example 38, 5-(oxetan-3-yl)-N-(3-(((7-(pyridin-4-yl)-2,3-dihydrofuro[3,2-c]pyridin-4-yl)amino)methyl)phenyl)-4,5,6,7-tetrahydrothiazolo[5,4-c]pyridine-2-carboxamide], the inhibitory constant (Ki) on ROCK1 [3] and at ROCK2 [4] was ≤ 3 nM each time.
On to `O=C(NCCc1cccnc1)c1cccc(CNc2ncc(-c3ccncc3)c3c2CCO3)c1` [Example 29, N-(2-(pyridin-3-yl)ethyl)-3-(((7-(pyridin-4-yl)-2,3-dihydrofuro[3,2-c]pyridin-4-yl)amino)methyl)benzamide], for which the inhibition constant (Ki) at ROCK1 [3] and at ROCK2 [4] was ≤ 3 nM throughout.
For the molecule `Cn1ncc2cc(C(=O)Nc3cccc(CNc4ncc(-c5ccncc5)c5c4CCO5)c3)ccc21` [Example 37, 1-methyl-N-(3-(((7-(pyridin-4-yl)-2,3-dihydrofuro[3,2-c]pyridin-4-yl)amino)methyl)phenyl)-1H-indazole-5-carboxamide], the Ki on ROCK1 [3] and on ROCK2 [4] was ≤ 3 nM in each case.
Take `CN(C)Cc1cccc(NC(=O)c2cccc(CNc3ncc(-c4ccncc4)c4c3CCO4)c2)c1` [Example 26, N-(3-((dimethylamino)methyl)phenyl)-3-(((7-(pyridin-4-yl)-2,3-dihydrofuro[3,2-c]pyridin-4-yl)amino)methyl)benzamide]: the Ki on ROCK1 [3] and on ROCK2 [4] was ≤ 3 nM each time.
Consider `CN1CCn2nc(NC(=O)c3cccc(CNc4ncc(-c5ccncc5)c5c4CCO5)c3)cc2C1` [Example 21], for which the Ki on ROCK1 [1], at ROCK2 [2], on ROCK1 [3] and on ROCK2 [4] was ≤ 3 nM throughout.
Take `O=C(N[C@H](CO)c1ccccc1)c1cccc(CNc2ncc(-c3ccncc3)c3c2CCO3)c1` [Example 24, (S)-N-(2-hydroxy-1-phenylethyl)-3-(((7-(pyridin-4-yl)-2,3-dihydrofuro[3,2-c]pyridin-4-yl)amino)methyl)benzamide]: the inhibitory constant (Ki) on ROCK1 [3] and on ROCK2 [4] was ≤ 3 nM throughout.
For the molecule `CN1CCc2nc(NC(=O)c3cccc(CNc4ncc(-c5ccnc(N)c5)c5c4CCO5)c3)sc2C1` [Example 49, 3-(((7-(2-aminopyridin-4-yl)-2,3-dihydrofuro[3,2-c]pyridin-4-yl)amino)methyl)-N-(5-methyl-4,5,6,7-tetrahydrothiazolo[5,4-c]pyridin-2-yl)benzamide], the Ki at ROCK1 [3] and at ROCK2 [4] was ≤ 3 nM each time.
On to `CN1CCc2nc(NC(=O)c3cccc(CNc4ncc(-c5ccnc(F)c5)c5c4CCO5)c3)sc2C1` [Example 50, 3-(((7-(2-fluoropyridin-4-yl)-2,3-dihydrofuro[3,2-c]pyridin-4-yl)amino)methyl)-N-(5-methyl-4,5,6,7-tetrahydrothiazolo[5,4-c]pyridin-2-yl)benzamide], for which the Ki at ROCK1 [3] and on ROCK2 [4] was ≤ 3 nM in each case.
As to `CN(C)Cc1nc(C(=O)Nc2cccc(CNc3ncc(-c4ccncc4)c4c3CCO4)c2)cs1` [Example 53, 2-((dimethylamino)methyl)-N-(3-(((7-(pyridin-4-yl)-2,3-dihydrofuro[3,2-c]pyridin-4-yl)amino)methyl)phenyl)thiazole-4-carboxamide], the inhibition constant (Ki) on ROCK1 [3] and at ROCK2 [4] was 3 to 30 nM throughout.
